Results from PubChem BioAssay AID1963826 (Molecular Pharmacology Branch, DTP, NCI, 2024).

Tested on: 926638-142-R-J1-PDC complex spheroid viability
Test: Anticancer human tumor 926638-142-R-J1-PDC patient-derived endometrial carcinoma cell line growth inhibition [POLQ]
Conditions: for IC50: curve of first compound; for viability, T/C: stronger effect = lower value
How it was run: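 Three-cell-type spheroids modelling solid tumor plus stroma served as the readout system; POL inhibitors were tested individually and in combination, concentration ranges set by clinical Cmax where known.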

[1] = second compound 0.0316 µM, first compound 0.0316 µM
[2] = second compound 0.0316 µM, first compound 0.1 µM
[3] = second compound 0.0316 µM, first compound 0.316 µM
[4] = second compound 0.0316 µM, first compound 1 µM
[5] = second compound 0.0316 µM, first compound 3.16 µM
[6] = second compound 0.0316 µM, first compound 10 µM
[7] = second compound 0.1 µM, first compound 0.0316 µM
[8] = second compound 0.1 µM, first compound 0.1 µM
[9] = second compound 0.1 µM, first compound 0.316 µM
[10] = second compound 0.1 µM, first compound 1 µM
[11] = second compound 0.1 µM, first compound 3.16 µM
[12] = second compound 0.1 µM, first compound 10 µM
[13] = second compound 0.316 µM, first compound 0.0316 µM
[14] = second compound 0.316 µM, first compound 0.1 µM
[15] = second compound 0.316 µM, first compound 0.316 µM
[16] = second compound 0.316 µM, first compound 1 µM
[17] = second compound 0.316 µM, first compound 3.16 µM
[18] = second compound 0.316 µM, first compound 10 µM
[19] = second compound 1 µM, first compound 0.0316 µM
[20] = second compound 1 µM, first compound 0.1 µM
[21] = second compound 1 µM, first compound 0.316 µM
[22] = second compound 1 µM, first compound 1 µM
[23] = second compound 1 µM, first compound 3.16 µM
[24] = second compound 1 µM, first compound 10 µM
[25] = second compound 3.16 µM, first compound 0.0316 µM
[26] = second compound 3.16 µM, first compound 0.1 µM
[27] = second compound 3.16 µM, first compound 0.316 µM
[28] = second compound 3.16 µM, first compound 1 µM
[29] = second compound 3.16 µM, first compound 3.16 µM
[30] = second compound 3.16 µM, first compound 10 µM
[31] = second compound 10 µM, first compound 0.0316 µM
[32] = second compound 10 µM, first compound 0.1 µM
[33] = second compound 10 µM, first compound 0.316 µM
[34] = second compound 10 µM, first compound 1 µM
[35] = second compound 10 µM, first compound 3.16 µM
[36] = second compound 10 µM, first compound 10 µM
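Further: spheroids exposed to drugs for one week before readout.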
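Wherever viability, T/C is given: percent viability relative to DMSO vehicle control wells set as 100%.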

SMILES: C=CC(=O)N1CCN(c2nc(=O)n(-c3c(C)ccnc3C(C)C)c3nc(-c4c(O)cccc4F)c(F)cc23)C(C)C1 (stereo unspecified) + COC1C(OC(N)=O)C(O)C(Oc2ccc3c(O)c(NC(=O)c4ccc(O)c(CC=C(C)C)c4)c(=O)oc3c2C)OC1(C)C
- IC50 (second compound 0.0316 µM): > 10 µM
- IC50 (second compound 0.1 µM): > 10 µM
- IC50 (second compound 0.316 µM): > 10 µM
- IC50 (second compound 1 µM): > 10 µM
- IC50 (second compound 3.16 µM): > 10 µM
- IC50 (second compound 10 µM): 8.27 µM
- viability, T/C [1]: 83.3%
- viability, T/C [2]: 95.4%
- viability, T/C [3]: 76.5%
- viability, T/C [4]: 86.8%
- viability, T/C [5]: 64.2%
- viability, T/C [6]: 52.5%
- viability, T/C [7]: 92.6%
- viability, T/C [8]: 91.6%
- viability, T/C [9]: 85.1%
- viability, T/C [10]: 80.8%
- viability, T/C [11]: 80.1%
- viability, T/C [12]: 65.6%
- viability, T/C [13]: 101%
- viability, T/C [14]: 96.2%
- viability, T/C [15]: 87.3%
- viability, T/C [16]: 85.8%
- viability, T/C [17]: 68.5%
- viability, T/C [18]: 53.6%
- viability, T/C [19]: 81.3%
- viability, T/C [20]: 87.9%
- viability, T/C [21]: 77.1%
- viability, T/C [22]: 80.9%
- viability, T/C [23]: 77.2%
- viability, T/C [24]: 59.4%
- viability, T/C [25]: 74.1%
- viability, T/C [26]: 87.7%
- viability, T/C [27]: 77.4%
- viability, T/C [28]: 75.7%
- viability, T/C [29]: 74.5%
- viability, T/C [30]: 56.5%
- viability, T/C [31]: 77.4%
- viability, T/C [32]: 96%
- viability, T/C [33]: 103%
- viability, T/C [34]: 73.6%
- viability, T/C [35]: 76.1%
- viability, T/C [36]: 45.1%

SMILES: CC(C)n1c(=O)n(C)c2cnc3cc(F)c(-c4ccc(OCCCN5CCCCC5)nc4)cc3c21 + COC1C(OC(N)=O)C(O)C(Oc2ccc3c(O)c(NC(=O)c4ccc(O)c(CC=C(C)C)c4)c(=O)oc3c2C)OC1(C)C
- IC50 (second compound 0.0316 µM): > 10 µM
- IC50 (second compound 0.1 µM): > 10 µM
- IC50 (second compound 0.316 µM): > 10 µM
- IC50 (second compound 1 µM): > 10 µM
- IC50 (second compound 3.16 µM): > 10 µM
- IC50 (second compound 10 µM): > 10 µM
- viability, T/C [1]: 87.3%
- viability, T/C [2]: 131%
- viability, T/C [3]: 131%
- viability, T/C [4]: 94.1%
- viability, T/C [5]: 87.2%
- viability, T/C [6]: 88.7%
- viability, T/C [7]: 98.7%
- viability, T/C [8]: 89.8%
- viability, T/C [9]: 110%
- viability, T/C [10]: 107%
- viability, T/C [11]: 90.3%
- viability, T/C [12]: 93.5%
- viability, T/C [13]: 101%
- viability, T/C [14]: 104%
- viability, T/C [15]: 108%
- viability, T/C [16]: 90.2%
- viability, T/C [17]: 86.6%
- viability, T/C [18]: 89%
- viability, T/C [19]: 119%
- viability, T/C [20]: 104%
- viability, T/C [21]: 104%
- viability, T/C [22]: 119%
- viability, T/C [23]: 81.9%
- viability, T/C [24]: 90.2%
- viability, T/C [25]: 87.4%
- viability, T/C [26]: 107%
- viability, T/C [27]: 101%
- viability, T/C [28]: 109%
- viability, T/C [29]: 88.2%
- viability, T/C [30]: 105%
- viability, T/C [31]: 114%
- viability, T/C [32]: 104%
- viability, T/C [33]: 114%
- viability, T/C [34]: 100%
- viability, T/C [35]: 89.5%
- viability, T/C [36]: 78.5%

SMILES: CC1COCCN1c1cc(-c2ccnn2C)c2ccnc(-c3ccn[nH]3)c2n1 (stereo unspecified) + COC1C(OC(N)=O)C(O)C(Oc2ccc3c(O)c(NC(=O)c4ccc(O)c(CC=C(C)C)c4)c(=O)oc3c2C)OC1(C)C
- IC50 (second compound 0.0316 µM): 0.455 µM
- IC50 (second compound 0.1 µM): 0.403 µM
- IC50 (second compound 0.316 µM): 0.517 µM
- IC50 (second compound 1 µM): 0.531 µM
- IC50 (second compound 3.16 µM): 0.493 µM
- IC50 (second compound 10 µM): 0.558 µM
- viability, T/C [1]: 111%
- viability, T/C [2]: 89.4%
- viability, T/C [3]: 58.2%
- viability, T/C [4]: 32.8%
- viability, T/C [5]: 12.9%
- viability, T/C [6]: 9.13%
- viability, T/C [7]: 89.4%
- viability, T/C [8]: 81.5%
- viability, T/C [9]: 53.2%
- viability, T/C [10]: 30.9%
- viability, T/C [11]: 11.5%
- viability, T/C [12]: 7.32%
- viability, T/C [13]: 107%
- viability, T/C [14]: 91.6%
- viability, T/C [15]: 68.8%
- viability, T/C [16]: 25.9%
- viability, T/C [17]: 13.6%
- viability, T/C [18]: 7.15%
- viability, T/C [19]: 96.3%
- viability, T/C [20]: 92.5%
- viability, T/C [21]: 67.6%
- viability, T/C [22]: 28.3%
- viability, T/C [23]: 11.3%
- viability, T/C [24]: 7.92%
- viability, T/C [25]: 90.6%
- viability, T/C [26]: 80.3%
- viability, T/C [27]: 64.5%
- viability, T/C [28]: 28.3%
- viability, T/C [29]: 15.1%
- viability, T/C [30]: 8.17%
- viability, T/C [31]: 91.5%
- viability, T/C [32]: 87.6%
- viability, T/C [33]: 66.8%
- viability, T/C [34]: 32.6%
- viability, T/C [35]: 13.8%
- viability, T/C [36]: 9.27%
